Test results from patent US7803563B2, “Method for screening the receptor-ligand binding in live cell” (Shanghai Institutes for Biological Sciences, CAS, priority 2006, dated 2010).
“Also recorded” adds a separate entry of the source.

Tests used:
Type in all cases: cell-based, Wistar rats
DRG neuron = assay: Time-resolved FEI recording (FIF recording)
Source text: Methods of the invention, as noted above, can provide images of endocytic vesicles with relative ease. Thus, these methods for detecting LRB-induced endocytosis can be used in real time to monitor the endocytosis processes. […] In real-time applications, the FEI methods described above may be modified as follows to provide better FIF results: (i) the spatial resolution can be reduced, i.e., OS thickness increased, to increase detection sensitivity; (ii) the confocal scan can be made at a fixed z-position (normally near the middle of the cell); and (iii) cell images can be obtained in the presence of extracellular FM dye (i.e., no need to wash away the dye outside the cells). Under these conditions, FIF recording can rapidly acquire many x-y images of the cell after ligand binding in order to monitor the LRB induced events in real time.
FIG. 7A illustrates a setup for performing a real-time recording of LRB-induced events. As illustrated, the cell is bathed in an ES solution containing a fluorescent dye (e.g., FM2-10), and the OS is selected to a thickness of about […] to have a better sensitivity. […] This is to provide background readings before the ligand is added. From image frame K+1 to image frame m (i.e., from tk+1 to tm), the cell is incubated with the ligand (ADP) in the ES solution. […]
The fluorescence intensity is proportional to the total number of endocytic vesicles. […]

P2Y = assay: FM endocytosis imaging (FEI) of ADP-induced endocytosis in single DRG neuron
Source text: (§1) Methods of the invention are based on FM endocytosis imaging (FEI). Confocal imaging can be used to measure the endocytosis induced by ligand-receptor binding (LRB). The principles of FM endocytosis imaging (FEI) method are: (i) an extracellular styryl FM dye (e.g., FM2-10) is taken up by the endocytic vesicles; and (ii) the FM molecule becomes 100 times brighter after uptake into vesicles. Thus, after proper stimulation, individual FM-loaded vesicles become visible images by standard confocal microscopy.
FIG. 2A illustrate a method of the invention. […] The ligand binds to the receptor and triggers receptor internalization (endocytosis). In the endocytosis process, the FM dye is internalized in endocytic vesicles. Subsequently, the excess FM-dye may be washed away, leaving behind cells loaded with dye filled vesicles that are observable due to the fluorescent dye. Using this procedure, single vesicles in a single cell can be visualized by FM imaging. Note that while this example uses an FM dye, other suitable dyes may also be used without departing from the scope of the invention. […] Therefore, some methods of the invention may not include the washing step.
When a confocal microscope is used, the images may be takes in different optical slices (OSs) based on different focal depth. […] The data can be observed as the distribution of FM spots (individual vesicles) in each OS or as a global view, which is a projection overlaying the FM images from different OSs. An advantage of viewing the individual OS is the ability to track the location of the endocytic vesicles within the cell. This would permit studies of vesicle trafficking inside the cells. The advantage of the global view is the total number of vesicles are observed and, therefore, it provides a maximum sensitivity for assay use. For example, the global view may be used to monitor LRB events as a function of time—e.g., in real-time monitoring. […]
(§2) The dye-containing vesicles in the cell may be imaged with a confocal fluorescence microscope, such as Zeiss LSM 510 (Germany). […]

DRG cells = assay: Multi-well (2×2) FEI protocol; conditions: 3 minutes, FIG. 9C
Experimental: FIGS. 9A-9B illustrate a method of the invention that could be used for high throughput evaluation of LRB-induced endocytosis in a multi-well (here 2×2) format. The multi-well plate is the same as a standard cell culture plate, except that a 0.17 mm-thick glass cover-slip constitutes part of the bottom in each well. In this example, single DRG cells were plated on the cover-slips in the wells.
Well (1,1) is incubated with ES and FM, without any ligand. Well (1,2) is incubated with 80 mM KCl and FM. Well (2,1) is incubated with 0.1 mM ADP and FM. Well (2,2) is incubated with ADP, Suramin, and FM. The incubations are all performed for 3 minutes.
Each well was scanned in sequence to obtain the images shown in FIG. 9B, and the endocytic signal (FM spots/cell) were analyzed and presented in histograms (FIG. 9C). […] Within each column, the top image is a transmission microscopy image, showing the cells in the well. The cell bracketed by the square in each well is chosen for image analysis.
The selected cells are scanned for FM images of single OSs (middle image) as well as the global image (bottom image) in each cell (FIG. 9B).

DRG = assay: Differential FEI labeling with FM2-10 and FM4-64 and KCl discharge; conditions: for numbers of endocytic vesicles induced by the two ligands: sequential ADP and 5-HT incubation with two FM dyes in the same cell, FIG. 8D
Experimental: This capability, for example, may be used to probe the vesicle sorting or trafficking inside the cells. It is known that GPCRs are active cargos for the internalized vesicles, and each different type of GPCR vesicles may have its own sorting pathway. To investigate different sorting paths of vesicles internalized under different conditions (time, ligand, etc.), vesicles can be labeled with FM dyes of different colors in the same cell.
As shown in the left panel, the cells in a dish is incubated with ADP and FM2-10 (green fluorophore). Then, the dye and ADP are washed away and a second incubation is performed with 5-HT and FM4-64 (red fluorophone). The cells are again washed and monitored with a confocal microscope, as illustrated in the right panel. Both FM2-10 and FM4-64 can be excited with a light at 488 nm. The emission of FM2-10 can be monitored at 530-600 nm, while the emission of FM4-64 can be monitored at >635 nm.
To test whether there is a common sorting pathways for the ADP-induced and 5-HT-induced endocytic vesicles, the cell was treated with 80 mM KCL for three minutes.

δ-opioid-DOR = biological target: T1, δ-opioid-DOR (Rattus norvegicus, UniProt P33533)
T1 construct: endogenous in cells; host or cells: freshly dissociated small DRG neurons of Wistar rats

[1] = biological target: T2, receptor of the tyrosine kinase (RTK) family (Rattus norvegicus, UniProt P35739); assay: FM endocytosis imaging (FEI) of NGF-induced endocytosis in DRG neuron; conditions: NGF 50 ng/ml
T2 construct: endogenous in cells; host or cells: freshly dissociated small DRG neurons of Wistar rats
Source text: as §1
(§3) FIG. 2A illustrate a method of the invention. […] The ligand binds to the receptor and triggers receptor internalization (endocytosis). In the endocytosis process, the FM dye is internalized in endocytic vesicles. […]
as §2
(§4) The FM spots in each OS can be counted manually or automatically, e.g., with the aid of a software. […] Thus, the pixel sizes of the images may be properly adjusted so that FM spots corresponding to the vesicles are counted. One of ordinary skill in the art would appreciate that the images may be manipulated with techniques known in the art, e.g., smoothing, and the dynamic range (intensity range) may be adjusted so that majority (e.g., >90%) of the fluorescent spots are counted, with minimum interference from background noises. […]

5HT-R = assay: FM endocytosis imaging (FEI) of 5-HT-induced endocytosis in DRG neuron
Source text: as §1, §3, §2, §4

T2 sequence (P35739 33-799): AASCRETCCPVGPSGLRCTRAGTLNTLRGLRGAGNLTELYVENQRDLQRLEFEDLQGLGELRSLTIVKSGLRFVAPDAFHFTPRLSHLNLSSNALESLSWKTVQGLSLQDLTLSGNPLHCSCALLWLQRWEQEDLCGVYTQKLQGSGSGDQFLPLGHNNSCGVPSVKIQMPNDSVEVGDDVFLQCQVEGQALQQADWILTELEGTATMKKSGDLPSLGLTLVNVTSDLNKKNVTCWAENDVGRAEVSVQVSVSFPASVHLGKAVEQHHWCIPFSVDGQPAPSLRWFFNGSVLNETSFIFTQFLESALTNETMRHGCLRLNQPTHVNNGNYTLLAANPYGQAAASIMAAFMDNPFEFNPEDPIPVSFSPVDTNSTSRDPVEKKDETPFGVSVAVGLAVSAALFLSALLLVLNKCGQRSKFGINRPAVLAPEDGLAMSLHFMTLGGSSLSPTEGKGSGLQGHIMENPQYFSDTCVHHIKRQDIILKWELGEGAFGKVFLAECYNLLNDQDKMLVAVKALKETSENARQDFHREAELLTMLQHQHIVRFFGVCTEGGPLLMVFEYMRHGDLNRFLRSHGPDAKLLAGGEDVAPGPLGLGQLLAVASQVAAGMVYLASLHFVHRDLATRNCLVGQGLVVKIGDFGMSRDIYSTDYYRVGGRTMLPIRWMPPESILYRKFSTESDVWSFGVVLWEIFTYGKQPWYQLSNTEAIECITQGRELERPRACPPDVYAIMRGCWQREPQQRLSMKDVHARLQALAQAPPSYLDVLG
T1 sequence (P33533 whole entry): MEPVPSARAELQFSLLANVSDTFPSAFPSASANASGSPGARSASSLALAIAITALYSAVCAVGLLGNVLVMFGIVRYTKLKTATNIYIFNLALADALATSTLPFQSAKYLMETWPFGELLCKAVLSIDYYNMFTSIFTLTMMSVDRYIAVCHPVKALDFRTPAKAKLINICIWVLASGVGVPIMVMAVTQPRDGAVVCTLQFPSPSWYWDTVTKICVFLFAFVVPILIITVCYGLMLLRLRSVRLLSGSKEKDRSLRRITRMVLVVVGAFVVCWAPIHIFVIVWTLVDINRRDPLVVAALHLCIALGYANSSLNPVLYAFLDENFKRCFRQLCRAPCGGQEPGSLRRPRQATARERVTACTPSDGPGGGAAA

Q: Which “number of fluorescent spots (endocytic vesicles) in the cell” value (DRG neuron; image at t=tm (ADP) vs t=tk (control), DRG neuron) does the source give for `Nc1ncnc2c1ncn2[C@@H]1O[C@H](COP(=O)(O)OP(=O)(O)O)[C@@H](O)[C@H]1O` [ADP] here?
A: substantial increase

Q: And the “fluorescence intensity (number of endocytic vesicles) inside the cell” value (DRG neuron; time course, average of 21 experiments, extracellular FM dye present)?
A: significantly increases

Q: And the “distribution of endocytic vesicles, medulla compared with periphery” value (P2Y; ADP-induced vesicles in DRG neuron, histogram FIG. 3C)?
A: Almost twice as many

Q: And the “number of FM spots relative to those induced by AR, GABAB, and mAChR” value (P2Y; DRG neuron, ligands separately introduced, FIG. 6B)?
A: 2-3 times

Q: And the “number of FM spots (endocytic vesicles)” value (P2Y; FM+ADP 3 min vs FM+ES control 3 min, single DRG neuron, FIG. 3A/3B)?
A: increased dramatically; also recorded: dramatic increase

Q: And the “endocytosis (FM spots/cell)” value (DRG cells; 0.1 mM ADP and FM)?
A: induced significant endocytosis

Q: And the “numbers of endocytic vesicles induced by the two ligands” value (DRG)?
A: similar

Q: Which “number of FM spots relative to those induced by AR, GABAB, and mAChR” value (δ-opioid-DOR) does the source give for `CC(C)[C@H](NC(=O)[C@H](CCC(=O)O)NC(=O)[C@H](Cc1ccccc1)NC(=O)[C@@H](C)NC(=O)[C@@H](N)Cc1ccc(O)cc1)C(=O)N[C@H](C(=O)NCC(=O)O)C(C)C` [deltorphin] here?
A: 2-3 times

Q: How did the “endocytic vesicles (FM spots)” value [1] turn out when nerve growth factor [NGF] was run?
A: substantial increase

Q: Which “numbers of endocytic vesicles induced by the two ligands” value (DRG) does the source give for `NCCc1c[nH]c2ccc(O)cc12` [5-HT, 5-hydroxytryptamine] here?
A: similar

Q: What about the “endocytic vesicles (FM spots)” value (5HT-R; 5-HT 0.1 mM vs control incubated with ES 3 minutes) of the same compound?
A: substantial increases

Q: What about the “number of FM spots relative to those induced by AR, GABAB, and mAChR” value (5HT-R; ligands separately introduced, FIG. 6B) of the same compound?
A: 2-3 times

Q: With `Cc1ccc(C(=O)Nc2ccc(S(=O)(=O)O)c3cc(S(=O)(=O)O)cc(S(=O)(=O)O)c23)cc1NC(=O)c1cccc(NC(=O)Nc2cccc(C(=O)Nc3cc(C(=O)Nc4ccc(S(=O)(=O)O)c5cc(S(=O)(=O)O)cc(S(=O)(=O)O)c45)ccc3C)c2)c1` [suramin] as the compound, how does the “inhibition of ADP-induced endocytosis (FM spots/cell)” value (DRG cells; ADP, Suramin, and FM) read?
A: inhibited

Q: For `[Cl-].[K+]` [KCl], which green/5HT-R vesicles discharged (DRG; 80 mM KCL for three minutes, 5-HT-induced vesicles, FIG. 8E) is on record?
A: about 37%

Q: And the red/P2Y vesicles discharged (DRG; 80 mM KCL for three minutes, ADP-induced vesicles, FIG. 8E)?
A: about 43%

Q: What about the “vesicles lost after the KCl treatment” value (DRG; 80 mM KCL for three minutes, FIG. 8C) of the same compound?
A: significant amount of vesicles were lost
